Patent publication US20250326744A1, “PIPERAZINE DERIVATIVE OR SALT THEREOF, AND PHARMACEUTICAL COMPOSITION” (priority 2022, published 2025)
Counter-ions that a name gives are not always drawn.

How the values were obtained:
[1] = tested on: S-3769 strain; experiment: Combinational effect with antibacterial agent against Pseudomonas aeruginosa (Test Examples 2 and 4): S-3769 strain with AMK or GM at 1/4 MIC, EC99; format: cell-based; settings: for EC99, combinational effect with AMK, S-3769 strain / EC99, S-3769 strain, AMK: combined with AMK at 1/4 MIC; for EC99, combinational effect with AMK, S-3769 strain / EC99, combinational effect with GM, S-3769 strain: Test Example 4; for EC99, combinational effect with GM, S-3769 strain / EC99, S-3769 strain, GM: combined with GM at 1/4 MIC; for EC99, S-3769 strain, AMK / EC99, S-3769 strain, GM: Table 52, Test Example 2, 16 to 20 hours culture, OD595
How it was run: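 P. aeruginosa S-3769 (clinical isolate, MexY overexpressed) grown 16–20 h in CAMHB, 10^4 to 5 CFU/well, with AMK or GM at ¼ MIC plus test compound 0–800 μM. Growth read as OD595; EC99 is the lowest compound concentration giving ≥99% growth inhibition.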

[2] = tested on: mexB (PA) strain; experiment: Combinational effect with antibacterial agent against Pseudomonas aeruginosa (Test Examples 2 and 4): mexB (PA) strain with LVFX, TC or AZT at 1/4 MIC, EC99; format: cell-based; settings: for EC99, combinational effect with AZT, mexB (PA) / EC99, combinational effect with LVFX, mexB (PA) / EC99, combinational effect with TC, mexB (PA): mexB (PA) strain, Test Example 4; for EC99, combinational effect with AZT, mexB (PA) / EC99, mexB (PA), AZT: combined with AZT at 1/4 MIC; for EC99, combinational effect with LVFX, mexB (PA) / EC99, mexB (PA), LVFX: combined with LVFX at 1/4 MIC; for EC99, combinational effect with TC, mexB (PA) / EC99, mexB (PA), TC: combined with TC at 1/4 MIC; for EC99, mexB (PA), AZT / EC99, mexB (PA), LVFX / EC99, mexB (PA), TC: Table 52, Test Example 2, 16 to 20 hours culture, OD595
How it was run: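 P. aeruginosa mexB (PA) strain, lacking MexCD-OprJ, MexEF-OprN and MexXY and overexpressing MexAB-OprM, grown 16–20 h in CAMHB (10^4–5 CFU/well) with LVFX, TC or AZT at ¼ MIC plus test compound at 0–800 μM. Growth read as OD595; EC99 is the lowest compound concentration giving ≥99% growth inhibition.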

Compound | EC99, combinational effect with AMK, S-3769 strain [1] | EC99, combinational effect with GM, S-3769 strain [1] | EC99, combinational effect with AZT, mexB (PA) [2] | EC99, combinational effect with LVFX, mexB (PA) [2] | EC99, combinational effect with TC, mexB (PA) [2] | EC99, S-3769 strain, AMK [1] | EC99, S-3769 strain, GM [1] | EC99, mexB (PA), AZT [2] | EC99, mexB (PA), LVFX [2] | EC99, mexB (PA), TC [2]
CCOc1cccc(F)c1CN1CCN(C(=O)[C@H](N)C2CCN(CCc3cc(Cl)ccc3-c3c(O)cccc3F)CC2)CC1 [Example 578, Hydrochloride of (2R)-2-amino-2-(1-(2-(4-chloro-2′-fluoro-6′-hydroxy-[1,1-biphenyl]-2-yl)ethyl)piperidin-4-yl)-1-(4-(2-ethoxy-6-fluorobenzyl)piperazin-1-yl) ethan-1-one] | B (25 μM<EC99≤100 μM) | B (25 μM<EC99≤100 μM) | B (25 μM<EC99≤100 μM) | A (12.5 μM<EC99≤25 μM) | B (25 μM<EC99≤100 μM) |  |  |  |  | 
CCOc1cccc(F)c1CN1CCN(C(=O)[C@H](N)C2CCN(CCc3cc(Cl)ccc3-c3cnccc3N)CC2)CC1 [Example 93, (R)-2-amino-2-(1-(2-(4-aminopyridin-3-yl)-5-chlorophenethyl)piperidin-4-yl)-1-(4-(2-ethoxy-6-fluorobenzyl)piperazin-1-yl)ethan-1-one] |  |  |  |  |  | B (25 μM<EC99≤100 μM) | B (25 μM<EC99≤100 μM) | S (EC99≤12.5 μM) | S (EC99≤12.5 μM) | S (EC99≤12.5 μM)
CCOc1cccc(F)c1CN1CCN(C(=O)[C@H](N)C2CCN(CCC3CCCCO3)CC2)CC1 (stereo partly shown) [Example 123] |  |  |  |  |  | C (100 μM<EC99) | C (100 μM<EC99) | C (100 μM<EC99) | C (100 μM<EC99) | C (100 μM<EC99)
CCSc1cc(F)ccc1CN1CCN(C(=O)[C@H](N)C2CCN(CCc3cc(Cl)ccc3-c3ccccc3F)CC2)CC1 [Example 598, Hydrochloride of (R)-2-amino-2-(1-(2-(4-chloro-2′-fluoro-[1,1-biphenyl]-2-yl)ethyl)piperidin-4-yl)-1-(4-(2-(ethylthio)-4-fluorobenzyl)piperazin-1-yl) ethan-1-one] | A (12.5 μM<EC99≤25 μM) | S (EC99≤12.5 μM) | S (EC99≤12.5 μM) | S (EC99≤12.5 μM) | S (EC99≤12.5 μM) |  |  |  |  | 
CCOc1cccc(F)c1CN1CCN(C(=O)[C@H](N)C2CCN(CCc3cc(Cl)ccc3-c3cc(O)ccc3Cl)CC2)CC1 [Example 586, Hydrochloride of (R)-2-amino-2-(1-(2-(2′,4-dichloro-5′-hydroxy-[1,1-biphenyl]-2-yl)ethyl)piperidin-4-yl)-1-(4-(2-ethoxy-6-fluorobenzyl)piperazin-1-yl)ethan-1-one] | A (12.5 μM<EC99≤25 μM) | S (EC99≤12.5 μM) | S (EC99≤12.5 μM) | S (EC99≤12.5 μM) | S (EC99≤12.5 μM) |  |  |  |  | 
CCOc1cccc(F)c1CN1CCN(C(=O)[C@H](N)C2CCN(CCc3cc(Cl)ccc3-c3ccccc3O)CC2)CC1 [Example 107, (R)-2-amino-2-(1-(2-(4-chloro-2′-hydroxy-[1,1′-biphenyl]-2-yl)ethyl)piperidin-4-yl)-1-(4-(2-ethoxy-6-fluorobenzyl)piperazin-1-yl)ethan-1-one] |  |  |  |  |  | A (12.5 μM<EC99≤25 μM) | A (12.5 μM<EC99≤25 μM) | A (12.5 μM<EC99≤25 μM) | A (12.5 μM<EC99≤25 μM) | A (12.5 μM<EC99≤25 μM)
CSc1ccccc1CN1CCN(C(=O)[C@H](N)C2CCN(CCc3cc(Cl)ccc3-c3cccc(F)c3)CC2)CC1 [Example 551, Hydrobromide of (R)-2-amino-2-(1-(2-(4-chloro-3′-fluoro-[1,1-biphenyl]-2-yl)ethyl)piperidin-4-yl)-1-(4-(2-(methylthio)benzyl)piperazin-1-yl)ethan-1-one] | B (25 μM<EC99≤100 μM) | A (12.5 μM<EC99≤25 μM) | S (EC99≤12.5 μM) | S (EC99≤12.5 μM) | S (EC99≤12.5 μM) |  |  |  |  | 
CCSc1cc(F)ccc1CN1CCN(C(=O)[C@H](N)C2CCN(CCc3cc(Cl)ccc3-c3cc(O)cc(Cl)c3)CC2)CC1 [Example 614, (R)-2-amino-2-(1-(2-(3′,4-dichloro-5′-hydroxy-[1,1′-biphenyl]-2-yl)ethyl)piperidin-4-yl)-1-(4-(2-(ethylthio)-4-fluorobenzyl)piperazin-1-yl)ethan-1-one] | S (EC99≤12.5 μM) | S (EC99≤12.5 μM) | S (EC99≤12.5 μM) | S (EC99≤12.5 μM) | S (EC99≤12.5 μM) |  |  |  |  | 
CSc1ccccc1CN1CCN(C(=O)[C@H](N)C2CCN(CCc3cc(Cl)ccc3-c3cc(N)cc(F)c3)CC2)CC1 [Example 564, Hydrobromide of (R)-2-amino-2-(1-(2-(3′-amino-4-chloro-5′-fluoro-[1,1-biphenyl]-2-yl)ethyl)piperidin-4-yl)-1-(4-(2-(methylthio)benzyl)piperazin-1-yl)ethan-1-one] | B (25 μM<EC99≤100 μM) | B (25 μM<EC99≤100 μM) | S (EC99≤12.5 μM) | S (EC99≤12.5 μM) | S (EC99≤12.5 μM) |  |  |  |  | 
CCOc1cccc(F)c1CN1CCN(C(=O)[C@H](N)C2CCN(CCc3cc(Cl)ccc3-c3cccc(NC)c3)CC2)CC1 [Example 561, Hydrobromide of (R)-2-amino-2-(1-(2-(4-chloro-3′-(methylamino)-[1,1-biphenyl]-2-yl)ethyl)piperidin-4-yl)-1-(4-(2-ethoxy-6-fluorobenzyl)piperazin-1-yl)ethan-1-one] | S (EC99≤12.5 μM) | S (EC99≤12.5 μM) | S (EC99≤12.5 μM) | S (EC99≤12.5 μM) | A (12.5 μM<EC99≤25 μM) |  |  |  |  | 
CCOc1cccc(F)c1CN1CCN(C(=O)[C@H](N)C2CCN(CCc3cc(Cl)ccc3C3=CCNCC3)CC2)CC1 [Example 71, (R)-2-amino-2-(1-(5-chloro-2-(1,2,3,6-tetrahydropyridin-4-yl)phenethyl)piperidin-4-yl)-1-(4-(2-ethoxy-6-fluorobenzyl)piperazin-1-yl)ethan-1-one] |  |  |  |  |  | S (EC99≤12.5 μM) | S (EC99≤12.5 μM) | C (100 μM<EC99) | B (25 μM<EC99≤100 μM) | S (EC99≤12.5 μM)
CCOc1cccc(F)c1CN1CCN(C(=O)CN2CCC(O)(CCc3ccccc3)CC2)CC1 [Example 422, hydrochloride of 1-(4-(2-ethoxy-6-fluorobenzyl)piperazin-1-yl)-2-(4-hydroxy-4-phenethylpiperidin-1-yl)ethan-1-one] |  |  |  |  |  | C (100 μM<EC99) | C (100 μM<EC99) | A (12.5 μM<EC99≤25 μM) | B (25 μM<EC99≤100 μM) | A (12.5 μM<EC99≤25 μM)
CSc1sccc1CN1CCN(C(=O)[C@H](N)C2CCN(CCc3cc(Cl)ccc3-c3ccccc3)CC2)CC1 [Example 531, Hydrobromide of (R)-2-amino-2-(1-(2-(4-chloro-[1,1-biphenyl]-2-yl)ethyl)piperidin-4-yl)-1-(4-((2-(methylthio)thiophen-2-yl)methyl)piperazin-1-yl)ethan-1-one] | A (12.5 μM<EC99≤25 μM) | A (12.5 μM<EC99≤25 μM) | B (25 μM<EC99≤100 μM) | S (EC99≤12.5 μM) | A (12.5 μM<EC99≤25 μM) |  |  |  |  | 
CCOc1cccc(F)c1CN1CCN(C(=O)[C@H](N)C2CCN(CCc3cc(Cl)ccc3-c3cccc(F)c3O)CC2)CC1 [Example 581, Hydrochloride of (R)-2-amino-2-(1-(2-(4-chloro-3′-fluoro-2′-hydroxy-[1,1-biphenyl]-2-yl)ethyl)piperidin-4-yl)-1-(4-(2-ethoxy-6-fluorobenzyl)piperazin-1-yl)ethan-1-one] | A (12.5 μM<EC99≤25 μM) | A (12.5 μM<EC99≤25 μM) | B (25 μM<EC99≤100 μM) | A (12.5 μM<EC99≤25 μM) | B (25 μM<EC99≤100 μM) |  |  |  |  | 
